Test results as given in patent US6995177B1, “HCV NS3 protease inhibitors” (Istituto Di Ricerche Di Biologia Molecolare P Angeletti SPA, priority 1999, dated 2006).

Molecular target: HCV NS3 protease (Hepatitis C virus genotype 1b, UniProt P26662)
Experiment: Microplate protease activity assay
Type: biochemical, hepatitis C virus (J strain)
Details: Table I; inhibition of HCV NS3 protease, co-factor Pep4AK, tritiated substrate
Description: Microplate Protease Activity Assay
The HCV-protease (J strain) was stored until use at −80° C. in 250 mM NaCl, phosphate buffer pH 6.5, 50% glycerol, 0.1% CHAPS. As protease co-factor the peptide Pep4AK (KKKGSVVIVGRIILSGR-NH2), spanning the central hydrophobic core (residues 21–34) of the NS4A protein, with a three-lysine tag at the N-terminus to increase solubility (Bianchi, E. et al., Biochemistry 36, 7890–7897;1997), was used. Pep4AK was stored at −80° C. in DMSO; the tritiated substrate Ac-DEMEECASHLPYK (^3H-Ac)-NH2, and the corresponding cold substrate Ac-DEMEECASHLPYK(Ac)-NH2 were stored at −80° C. in DMSO/DTT.
The assay was run in Costar polypropylene 96-well plates. The composition of the reaction mixture was as follows (100 μl): • Glycerol 15% • DTT 30 mM • Hepes pH 7,5 50 mM • Triton X-100 0.05% • Protease 10 nM • hot+cold substrate 5 μM (300.000 cpm) • Pep4AK 15 μM
Test compounds were dissolved—in DMSO (final concentration 10% DMSO)
Pep4AK was pre-incubated with protease for 5 min prior to addition of substrate mix. In these conditions, the substrate Km was 7±2 μM. Test compounds were added at 8 different concentrations in 8 different wells. Plates were shaken for 30 minutes at room temperature, then an ionic exchange resin (100 μl of 20% Fractogel TSK-DEAE® 650S, Merck) was added to capture unprocessed substrate and plates shaken for another 10 minutes. After allowing the resin to settle by centrifugation, 30 μl of the reaction mix were transferred in a 96-well plate (Picoplate, Packard), admixed with 250 μl of scintillation cocktail Microscint 40, and the radioactivity measured in a scintillation Packard Top Count β-counter.
IC50 was calculated from the test compound dilution curve, as the concentration of compound giving 50% inhibitions.

Sequence of HCV NS3 protease (P26662 1027-1206, other chains not shown): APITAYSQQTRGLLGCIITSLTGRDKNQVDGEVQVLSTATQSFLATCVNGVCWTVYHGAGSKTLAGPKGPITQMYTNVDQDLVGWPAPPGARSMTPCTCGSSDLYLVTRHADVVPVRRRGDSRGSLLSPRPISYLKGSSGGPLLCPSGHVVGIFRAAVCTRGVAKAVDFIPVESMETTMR

In order of rising IC50:
1. CC(C)C[C@H](NC(=O)[C@H](CC(=O)O)NC(=O)[C@H](CC1CCCCC1)NC(=O)[C@@H]1CCCC[C@H]1C(=O)O)C(N)=O (single isomer, unassigned) [Example 1, R1R-cyclohexane-1,2-dicarboxylate monoamide of Cha-Asp-Leu-NH2]  15 µM
2. S,S-cyclohexane-1,2-dicarboxylate monoamide of Cha-Asp-Leu-NHEt [Example 3]  32 µM
3. CCNC(=O)[C@H](CC(C)C)NC(=O)[C@H](CC(=O)O)NC(=O)[C@H](CC1CCCCC1)NC(=O)C1=C(C(=O)O)CCCC1 [Example 4]  38 µM
4. CC(C)C[C@H](NC(=O)[C@H](CC(=O)O)NC(=O)[C@H](CC1CCCCC1)NC(=O)[C@H]1CCCC[C@@H]1C(=O)O)C(N)=O [Example 2, SS-cyclohexane-1,2-dicarboxylate monoamide of Cha-Asp-Leu-NH2]  54 µM
5. CC(C)C[C@H](NC(=O)[C@H](CC(=O)O)NC(=O)[C@H](CC1CCCCC1)NC(=O)[C@@H]1CCC[C@H]1C(=O)O)C(N)=O [Example 5]  60 µM
6. CC(C)C[C@H](NC(=O)[C@H](CC(=O)O)NC(=O)[C@H](CC1CCCCC1)NC(=O)c1ccccc1C(=O)O)C(N)=O [Example 6]  64 µM
7. CCNC(=O)[C@H](CC(C)C)NC(=O)[C@H](CC(=O)O)NC(=O)[C@H](CC1CCCCC1)NC(=O)c1ccccc1C(=O)O [Example 7]  64 µM

Same assay, conditions: Table II; inhibition of HCV NS3 protease, co-factor Pep4AK, tritiated substrate

In order of rising IC50:
1. CC(C)CC(NC(=O)C(CC(=O)O)NC(=O)C(NC(=O)C1CCCCC1C(=O)O)c1cccc(OC(=O)CC(c2ccccc2)c2ccccc2)c1)C(N)=O (single isomer, unassigned) [Example 8]  13 µM
2. CC(C)C[C@H](NC(=O)[C@H](CC(=O)O)NC(=O)[C@@H](NC(=O)[C@@H]1CCCC[C@H]1C(=O)O)c1cccc(OC(=O)Cc2cccc3ccccc23)c1)C(N)=O [Example 9]  22 µM
3. CC(C)C[C@H](NC(=O)[C@H](CC(=O)O)NC(=O)[C@@H](NC(=O)[C@@H]1CCCC[C@H]1C(=O)O)c1cccc(OC(=O)Cc2ccc3ccccc3c2)c1)C(N)=O [Example 10]  22 µM
4. CC(C)C[C@H](NC(=O)[C@H](CC(=O)O)NC(=O)[C@@H](NC(=O)[C@@H]1CCCC[C@H]1C(=O)O)c1ccc(Br)cc1)C(N)=O [Example 15]  26 µM
5. CC(C)C[C@H](NC(=O)[C@H](CC(=O)O)NC(=O)[C@@H](NC(=O)[C@@H]1CCCC[C@H]1C(=O)O)c1cccc(OC(=O)[C@@H]2CCCC[C@H]2C(=O)O)c1)C(N)=O [Example 11]  35 µM
6. CC(C)C[C@H](NC(=O)[C@H](CC(=O)O)NC(=O)[C@@H](NC(=O)[C@@H]1CCCC[C@H]1C(=O)O)c1ccc(Cl)cc1)C(N)=O [Example 12]  37 µM
7. CC(C)C[C@H](NC(=O)[C@H](CC(=O)O)NC(=O)[C@@H](NC(=O)[C@@H]1CCCC[C@H]1C(=O)O)c1ccccc1)C(N)=O [Example 13]  40 µM
8. CC(C)C[C@H](NC(=O)[C@H](CC(=O)O)NC(=O)[C@@H](NC(=O)[C@@H]1CCCC[C@H]1C(=O)O)c1ccccc1F)C(N)=O [Example 14]  47 µM

Same assay, conditions: Table III; inhibition of HCV NS3 protease, co-factor Pep4AK, tritiated substrate

In order of rising IC50:
1. CC(C)C[C@H](NC(=O)[C@H](CCC(=O)O)NC(=O)[C@H](CC1CCCCC1)NC(=O)[C@@H]1CCCC[C@H]1C(=O)O)C(N)=O [Example 16]  41 µM
2. CC(C)C[C@H](NC(=O)[C@H](CC(=O)O)N(C)C(=O)[C@H](CC1CCCCC1)NC(=O)[C@@H]1CCCC[C@H]1C(=O)O)C(N)=O [Example 17]  100 µM
3. CC(C)C[C@H](NC(=O)[C@H](CC(=O)O)N(C)C(=O)[C@H](CC1CCCCC1)NC(=O)c1ccccc1C(=O)O)C(N)=O [Example 18]  115 µM

Same assay, conditions: Table IV; inhibition of HCV NS3 protease, co-factor Pep4AK, tritiated substrate

In order of rising IC50:
1. O=C(O)CCN(CCC(c1ccccc1)c1ccccc1)C(=O)[C@@H](NC(=O)[C@@H]1CCCC[C@H]1C(=O)O)c1ccc(Br)cc1 [Example 21]  1.7 µM
2. O=C(O)CCN(CCC(c1ccccc1)c1ccccc1)C(=O)[C@@H](NC(=O)[C@@H]1CCCC[C@H]1C(=O)O)c1ccccc1F [Example 23]  6 µM
3. O=C(O)CCN(CCC(c1ccccc1)c1ccccc1)C(=O)[C@@H](NC(=O)[C@@H]1CCCC[C@H]1C(=O)O)c1ccc(C(F)(F)F)cc1 [Example 22]  7 µM
4. O=C(O)CCN(CCC(c1ccccc1)c1ccccc1)C(=O)[C@@H](NC(=O)[C@@H]1CCCC[C@H]1C(=O)O)c1ccccc1 (single isomer, unassigned) [Example 19]  14 µM
5. O=C(O)CCN(CC(c1ccccc1)c1ccccc1)C(=O)[C@@H](NC(=O)[C@@H]1CCCC[C@H]1C(=O)O)c1ccccc1 [Example 29]  39 µM
6. COc1ccccc1CCN(CCC(=O)O)C(=O)[C@@H](NC(=O)[C@@H]1CCCC[C@H]1C(=O)O)c1ccccc1F [Example 26]  44 µM
7. O=C(O)CCN(CCc1ccc(Cl)cc1Cl)C(=O)[C@@H](NC(=O)[C@@H]1CCCC[C@H]1C(=O)O)c1ccccc1 [Example 30]  49 µM
8. O=C(O)CCN(CCC(c1ccccc1)c1ccccc1)C(=O)[C@H](CC1CCCCC1)NC(=O)[C@@H]1CCCC[C@H]1C(=O)O [Example 20]  55 µM
9. NC(=O)CCN(CCC(c1ccccc1)c1ccccc1)C(=O)[C@@H](NC(=O)[C@H]1CCCC[C@@H]1C(=O)O)c1ccc(Br)cc1 [Example 25]  59 µM
10. CCOC(=O)CCN(CCC(c1ccccc1)c1ccccc1)C(=O)[C@@H](NC(=O)[C@H]1CCCC[C@@H]1C(=O)O)c1ccc(Br)cc1 [Example 24]  60 µM
11. COc1cccc(CCN(CCC(=O)O)C(=O)[C@@H](NC(=O)[C@@H]2CCCC[C@H]2C(=O)O)c2ccccc2F)c1 [Example 27]  66 µM
12. O=C(O)CCN(CCc1ccccc1Cl)C(=O)[C@@H](NC(=O)[C@@H]1CCCC[C@H]1C(=O)O)c1ccccc1F [Example 28]  70 µM
13. COc1ccc(CCN(CCC(=O)O)C(=O)[C@@H](NC(=O)[C@@H]2CCCC[C@H]2C(=O)O)c2ccccc2)cc1OC [Example 31]  123 µM
14. O=C(O)CCN(CC(c1ccccc1)c1ccccc1)C(=O)[C@H](CC1CCCCC1)NC(=O)[C@@H]1CCCC[C@H]1C(=O)O [Example 32]  133 µM
15. O=C(O)CCN(CCc1ccc(Cl)cc1Cl)C(=O)[C@H](CC1CCCCC1)NC(=O)[C@@H]1CCCC[C@H]1C(=O)O [Example 33]  177 µM
